Reference: US11000509B2, “Methods and compositions for daily ophthalmic administration of phentolamine to improve visual performance” (Ocuphire Pharma, Inc., priority 2013, dated 2021)
Structures can show the parent of a compound that is named as a salt.

Assays:
[1] = tested on: eyes of patients suffering from severe night vision difficulty; test: Example 1 clinical study: reduction in pupil diameter; type: in vivo, humans; conditions: from percentage of eyes with at least 10% reduction in pupil diameter after the last dose, second period, 1% (w/v) (FIG. 4B)
Text: (§1) Sixty patients with normal day vision (i.e., 20/40 or better) but which suffer from severe night vision difficulty were enrolled in the study. During the first period of the study, patients were randomized into three groups. The groups received either placebo, 0.5% (w/v) phentolamine mesylate, or 1.0% (w/v) phentolamine mesylate once daily for 15 days. The patients were observed on days 1, 4, 8, and 15 prior to administering the ophthalmic solution of phentolamine mesylate and then observed again two hours after the ophthalmic solution of phentolamine mesylate was administered. During the second period of the study, all sixty patients were instructed to administer an ophthalmic solution of phentolamine mesylate (1% (w/v)) as needed, but no more than once daily to each eye. The ophthalmic solution of phentolamine mesylate contained: 1% (w/v) phentolamine mesylate, 4% (w/v) mannitol, 3 mM sodium acetate, and water. The placebo was a solution containing 4% (w/v) mannitol, 3 mM sodium acetate, and water.

[2] = tested on: eyes of patients suffering from severe night vision difficulty; test: Example 1 clinical study: eye redness, CCLRU Redness Grading Scale regraded 0, 0.5, 1, 2, 3; type: in vivo, humans
Text: as §1, with “The patients were observed on days 1, 4, 8, and 15 prior to administering the ophthalmic solution of phentolamine mesylate and then observed again two hours after the ophthalmic solution of phentolamine mesylate was administered.” left out
Patients were to meet with a clinician for evaluation on study days 1, 4, 8, 15, and a post-dosing follow-up evaluation three or more days after administering the last dose in the second period. […]

pharmacokinetic half-life [1]: approximately two
eye redness ([2]; immediately after administration (FIG. 5)): increases
eye redness ([2]; measured prior to administration on days 4, 8, and 15 (FIG. 5)): returns to baseline
SMILES: Cc1ccc(N(CC2=NCCN2)c2cccc(O)c2)cc1 [Phentolamine Mesylate, phentolamine mesylate]
